Laboratory results as given in PubChem BioAssay AID248 (DTP/NCI, 2004).
Values joined by “and” are separate entries in the source; they are usually repeats but may differ in a detail not shown here. Equal values may be shown once. Toxic doses and inconclusive results are not listed. No stated cut-off is given here; in the data, active means T/C of 150% or more; inactive means T/C below 125%. Numbered stars: 1 amine (or outer) side, 2 acyl side, 3 side chain; on linkers, the order of the positions; unused ones are H or OH. Square brackets hold non-standard residues; d marks the D form. Peptide text beside a SMILES is read from it. γGlu = O=C(O)[CH](CCC(=O)[*:2])N[*:1]; Hpg = N[CH](C(=O)O)c1ccc(O)cc1

System: L1210 leukemia ip in BDF1 mice, survival T/C
Assay: NCI In Vivo Anticancer Drug Screen. Data for tumor model L1210 Leukemia (intraperitoneal) in B6D2F1 (BDF1) mice
Details: endpoint: mean survival time, higher = longer survival
In short: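 Each compound was tested against a transplantable tumor grown in mice. The endpoint was survival, with treated animals benchmarked against vehicle controls as a simple ratio.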

[1] = dose: 100.0 mg/kg/injection, schedule: Q01DX001 (ip), vehicle: saline
[2] = dose: 100.0 mg/kg/injection, schedule: Q04DX002 (ip), vehicle: saline with Tween-80
[3] = dose: 200.0 mg/kg/injection, schedule: Q04DX002 (ip), vehicle: saline with Tween-80
[4] = dose: 400.0 mg/kg/injection, schedule: Q04DX002 (ip), vehicle: saline with Tween-80

Measured: T/C

CC(=O)OCC1OC(n2cnc3c(=S)nc(N)[nH]c32)CC1OC(C)=O (stereo not drawn)
inactive: dose: 2.5 mg/kg/injection, schedule: Q01DX002 (ip), vehicle: Klucel (hydroxypropylcellulose) (HPC) 118 % of control | dose: 5.0 mg/kg/injection, schedule: Q04DX003 (ip), vehicle: Klucel (hydroxypropylcellulose) (HPC) 117 % of control | dose: 10.0 mg/kg/injection, schedule: Q01DX002 (ip), vehicle: Klucel (hydroxypropylcellulose) (HPC) 119 % of control | dose: 10.0 mg/kg/injection, schedule: Q04DX003 (ip), vehicle: Klucel (hydroxypropylcellulose) (HPC) 121 % of control | dose: 20.0 mg/kg/injection, schedule: Q01DX002 (ip), vehicle: Klucel (hydroxypropylcellulose) (HPC) 123 % of control

O=C1c2ccccc2-c2cccc(I)c21
inactive: dose: 100.0 mg/kg/injection, schedule: Q01DX001 (ip), vehicle: carboxymethylcellulose (CMC) 99 % of control | dose: 200.0 mg/kg/injection, schedule: Q01DX001 (ip), vehicle: carboxymethylcellulose (CMC) 101 % of control | dose: 400.0 mg/kg/injection, schedule: Q01DX001 (ip), vehicle: carboxymethylcellulose (CMC) 92 % of control

Cc1cc(=O)c2cccc(-c3ccccc3)c2[nH]1
inactive: dose: 25.0 mg/kg/injection, schedule: Q01DX009 (ip), vehicle: acetone 95 % of control | dose: 25.0 mg/kg/injection, schedule: Q04DX003 (ip), vehicle: saline 101 % of control | dose: 50.0 mg/kg/injection, schedule: Q01DX009 (ip), vehicle: acetone 92 % of control | dose: 50.0 mg/kg/injection, schedule: Q04DX003 (ip), vehicle: saline 100 % of control | dose: 100.0 mg/kg/injection, schedule: Q01DX009 (ip), vehicle: acetone 92 % of control | dose: 100.0 mg/kg/injection, schedule: Q04DX003 (ip), vehicle: saline 100 % of control | dose: 200.0 mg/kg/injection, schedule: Q04DX003 (ip), vehicle: saline 96 % of control

O=C1OC(c2ccccc2)CC1N1CCOCC1 (stereo not drawn)
inactive: dose: 100.0 mg/kg/injection, schedule: Q01DX009 (ip), vehicle: saline sonified 106 % of control | dose: 100.0 mg/kg/injection, schedule: Q04DX003 (ip), vehicle: Klucel (hydroxypropylcellulose) (HPC) 98 % of control | dose: 200.0 mg/kg/injection, schedule: Q01DX009 (ip), vehicle: saline sonified 99 % of control | dose: 200.0 mg/kg/injection, schedule: Q04DX003 (ip), vehicle: Klucel (hydroxypropylcellulose) (HPC) 104 % of control | dose: 400.0 mg/kg/injection, schedule: Q01DX009 (ip), vehicle: saline sonified 97 % of control | dose: 400.0 mg/kg/injection, schedule: Q04DX003 (ip), vehicle: Klucel (hydroxypropylcellulose) (HPC) 98 % of control

CCN(CC)CCN(C(=O)Cc1cccc2ccccc12)c1ccccc1N
inactive: dose: 19.0 mg/kg/injection, schedule: Q04DX003 (ip), vehicle: acid diluted with saline 94 % of control | dose: 38.0 mg/kg/injection, schedule: Q04DX003 (ip), vehicle: acid diluted with saline 102 % of control | dose: 75.0 mg/kg/injection, schedule: Q01DX001 (ip), vehicle: acid diluted with saline 105 % of control | dose: 75.0 mg/kg/injection, schedule: Q04DX003 (ip), vehicle: acid diluted with saline 100 % of control

CCC(O)C(CC(C)N(C)C)(c1ccccc1)c1ccccc1 (stereo not drawn)
inactive: [1] 108 % of control

CN(C)N=Nc1ccccc1CO
inactive: dose: 1.0 mg/kg/injection, schedule: Q01DX009 (ip), vehicle: other 94 % of control | dose: 2.0 mg/kg/injection, schedule: Q01DX009 (ip), vehicle: other 103 % of control | dose: 4.0 mg/kg/injection, schedule: Q01DX009 (ip), vehicle: other 103 % of control | dose: 8.0 mg/kg/injection, schedule: Q01DX009 (ip), vehicle: other 103 % of control | dose: 25.0 mg/kg/injection, schedule: Q04DX003 (ip), vehicle: other 105 % of control | dose: 50.0 mg/kg/injection, schedule: Q04DX003 (ip), vehicle: other 120 % of control

Cc1ccc(C)c(Br)c1C
inactive: dose: 100.0 mg/kg/injection, schedule: Q01DX009 (ip), vehicle: saline with Tween-80 104 % of control | [2] 104 % of control | dose: 200.0 mg/kg/injection, schedule: Q01DX009 (ip), vehicle: saline with Tween-80 104 % of control | [3] 101 % of control | dose: 400.0 mg/kg/injection, schedule: Q01DX009 (ip), vehicle: saline with Tween-80 101 % of control | [4] 101 % of control

CC(NC(=O)CCC(NC(=O)C(Cc1ccc(O)cc1)NC(=O)CNC(=O)C(C)NC(=O)CCC(NC(=O)C(N)c1ccc(O)cc1)C(=O)O)C(=O)O)C(=O)NCC(=O)NCC(=O)O (stereo not drawn) (H-[Hpg][γGlu]AGY[γGlu]AGG-OH; configuration not given here)
inactive: [1] 97 % of control | dose: 200.0 mg/kg/injection, schedule: Q01DX001 (ip), vehicle: saline 98 % of control | dose: 400.0 mg/kg/injection, schedule: Q01DX001 (ip), vehicle: saline 97 % of control

O=C(O)c1ccccc1C(=O)c1ccc2cccc(F)c2c1
inactive: dose: 100.0 mg/kg/injection, schedule: Q01DX001 (ip), vehicle: Klucel (hydroxypropylcellulose) (HPC) 105 % of control | dose: 200.0 mg/kg/injection, schedule: Q01DX001 (ip), vehicle: Klucel (hydroxypropylcellulose) (HPC) 120 % of control | dose: 400.0 mg/kg/injection, schedule: Q01DX001 (ip), vehicle: Klucel (hydroxypropylcellulose) (HPC) 100 % of control

CN1C2CCC1CC(NCCN1CC1)C2 (stereo not drawn)
inactive: [1] 107 % of control

CCOC(=O)c1ccc(NC(=O)C2CC2)cc1
inactive: dose: 100.0 mg/kg/injection, schedule: Q01DX009 (ip), vehicle: Klucel (hydroxypropylcellulose) (HPC) 113 % of control | dose: 200.0 mg/kg/injection, schedule: Q01DX009 (ip), vehicle: Klucel (hydroxypropylcellulose) (HPC) 109 % of control | dose: 400.0 mg/kg/injection, schedule: Q01DX009 (ip), vehicle: Klucel (hydroxypropylcellulose) (HPC) 104 % of control

NC(N)=NC(N)=Nc1ccccc1
inactive: dose: 100.0 mg/kg/injection, schedule: Q04DX002 (ip), vehicle: Klucel (hydroxypropylcellulose) (HPC) 101 % of control | dose: 200.0 mg/kg/injection, schedule: Q04DX002 (ip), vehicle: Klucel (hydroxypropylcellulose) (HPC) 105 % of control | dose: 400.0 mg/kg/injection, schedule: Q04DX002 (ip), vehicle: Klucel (hydroxypropylcellulose) (HPC) 97 % of control

COC1=C(C)C(=O)c2c(c(COC(N)=O)c3n2CC2C3N2C)C1=O (stereo not drawn)
inactive: dose: 1.0 mg/kg/injection, schedule: Q01DX009 (ip), vehicle: carboxymethylcellulose (CMC) 123 % of control | dose: 1.8 mg/kg/injection, schedule: Q01DX009 (ip), vehicle: carboxymethylcellulose (CMC) 105 % of control | dose: 1.9 mg/kg/injection, schedule: Q01DX001 (ip), vehicle: other 116 % of control and 122 % of control | dose: 2.9 mg/kg/injection, schedule: Q01DX001 (ip), vehicle: other 119 % of control | dose: 4.5 mg/kg/injection, schedule: Q01DX001 (ip), vehicle: other 122 % of control | dose: 6.7 mg/kg/injection, schedule: Q01DX001 (ip), vehicle: other 123 % of control

CC(O)CN1C(=O)c2cccc3cc([N+](=O)[O-])cc(c23)C1=O (stereo not drawn)
inactive: [2] 95 % of control | [3] 103 % of control | [4] 98 % of control

Cc1cc(N=NC(=N)N)ccc1NN=C(N)N
inactive: dose: 37.5 mg/kg/injection, schedule: Q01DX Z (oral), vehicle: carboxymethylcellulose (CMC) 115 % of control | dose: 75.0 mg/kg/injection, schedule: Q01DX Z (oral), vehicle: carboxymethylcellulose (CMC) 100 % of control | dose: 150.0 mg/kg/injection, schedule: Q01DX Z (oral), vehicle: carboxymethylcellulose (CMC) 96 % of control | dose: 300.0 mg/kg/injection, schedule: Q01DX Z (oral), vehicle: carboxymethylcellulose (CMC) 102 % of control

NC1CC(C(=O)O)CCC1S (stereo not drawn)
inactive: dose: 12.5 mg/kg/injection, schedule: Q04DX002 (ip), vehicle: saline 106 % of control | dose: 50.0 mg/kg/injection, schedule: Q04DX002 (ip), vehicle: other 94 % of control | dose: 50.0 mg/kg/injection, schedule: Q04DX002 (ip), vehicle: saline 87 % of control | dose: 100.0 mg/kg/injection, schedule: Q04DX002 (ip), vehicle: other 91 % of control
